{"source": "BindingDB's records for patent US20250304563", "about": "(Orum Therapeutics, 2025)", "target": "T1, Isoform Truncated 1 of E3 ubiquitin-protein ligase CBL-B [36-427] (Homo sapiens, UniProt Q13191)", "T1 construct": "36-427", "assay": "Binding Affinity of Example 1 Compounds to Cbl-b Protein", "experimental": "Compounds were assessed for binding activity to Cbl-b by their ability to compete with and displace a probe comprised of BODIPY-FL fluorophore conjugated to a Cbl-b inhibitor (see Example 54 in WO2020264398). In the assay, a 36-427 aa truncated form of Cbl-b with an N-terminus Avi-tag was incubated 20 mM HEPES pH 7.5, 150 mM NaCl, 0.01% Triton X-100, 0.1% BSA, 0.5 mM TCEP buffer with streptavidin-terbium (Cisbio). After one hour of incubation at room temperature, 1 uM each of fluorescent probe and compound were combined with the reaction mixture. Compounds with Cbl-b binding activity competitively displace the fluorophore tagged inhibitor thereby disrupting the FRET signal from the terbium-BODIPY-FL complex. The reaction mixtures were incubated for one additional hour at room temperature to allow for competition between inhibitor and candidate compounds to occur. The time resolved FRET (TR-FRET) signal was then read at 520/620 […] ([…]) using a Spectramax M5e plate reader (Molecular Devices) to measure probe displacement. Compounds with Cbl-b binding activity had decreased FRET signal owing to disruption of the terbium-BODIPY-FL FRET complex. Standard methods in PRISM were used to calculate the compound IC50 values from the experimental data.", "data": [{"smiles": "CCSc1cc(C2(Cc3nncn3C)COC2)cc(N2CC3C(C(N)=O)=CC(CN4CCC[C@H](C)C4)=CC3C2=O)n1", "note": "(stereo partly specified) [US20250304563, Compound 145]", "values": [{"measurement": "IC50", "value": "in the range around 12.5 nM"}]}]}
